# Results reported in the supplement of paper PMC10307832.
# Compound: C1CCC(CC1)N(CCNCCC2=C3C(=C(C=C2)O)NC(=O)CO3)C(=O)CCNCCC4=CC(=C(C=C4)Cl)Cl [AZ505] + CCNC(=O)c1noc(-c2cc(C(C)C)c(O)cc2O)c1-c1ccc(CN2CCOCC2)cc1 [Luminespib] (partner 0.01 µM)
# Test: relative viability (nuclei count vs DMSO), 5 days (fraction); higher = more cells survive
# Details: first compound 0.08 µM
# Procedure, shortened: (§1)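 Values are medians from duplicate plates. Each reflects relative viability, defined as the nuclei count of treated wells over that of vehicle wells. Lung cancer cell lines in 1536-well plates were pin-tool dosed one day after seeding with one drug alone or with a fixed anchor-drug dose plus five library-drug doses (not always all listed) in √10 steps, then fixed, stained and imaged at 4× after 5 days.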
row,Cell Line,relative viability
1,LC-2-ad,0.927
2,NCI-H1944,0.827
3,NCI-H1975,0.198
4,RERF-LC-KJ,1.24
5,ABC-1,0.865
6,NCI-H358,0.22
7,NCI-H650,0.726
8,PC-3 [JPC-3],0.65

# Same assay, conditions: first compound 0.253 µM
row,Cell Line,relative viability
1,LC-2-ad,0.881
2,NCI-H1944,0.715
3,NCI-H1975,0.197
4,RERF-LC-KJ,1.33
5,ABC-1,0.472
6,NCI-H358,0.306
7,NCI-H650,0.777
8,PC-3 [JPC-3],0.697

# Same assay, conditions: first compound 0.8 µM
row,Cell Line,relative viability
1,LC-2-ad,1.06
2,NCI-H1944,0.77
3,NCI-H1975,0.197
4,RERF-LC-KJ,1.22
5,ABC-1,0.524
6,NCI-H358,0.402
7,NCI-H650,0.835
8,PC-3 [JPC-3],0.661

# Same assay, conditions: first compound 2.53 µM
row,Cell Line,relative viability
1,LC-2-ad,0.868
2,NCI-H1944,0.707
3,NCI-H1975,0.162
4,RERF-LC-KJ,1.2
5,ABC-1,0.839
6,NCI-H650,0.774
7,PC-3 [JPC-3],0.635

# Same assay, conditions: first compound 8 µM
row,Cell Line,relative viability
1,LC-2-ad,1.16
2,NCI-H1944,0.738
3,NCI-H1975,0.2
4,RERF-LC-KJ,1.03
5,ABC-1,0.717
6,NCI-H358,0.584
7,NCI-H650,0.709
8,PC-3 [JPC-3],0.739

# Compound: C1CCC(CC1)N(CCNCCC2=C3C(=C(C=C2)O)NC(=O)CO3)C(=O)CCNCCC4=CC(=C(C=C4)Cl)Cl [AZ505] + Cc1nc(Nc2ncc(C(=O)Nc3c(C)cccc3Cl)s2)cc(N2CCN(CCO)CC2)n1 [Dasatinib] (partner 0.075 µM)
# Test: as above
# Details: first compound 0.08 µM
# Procedure, shortened: as §1
row,Cell Line,relative viability
1,LC-2-ad,0.578
2,NCI-H1944,0.212
3,NCI-H1975,0.343
4,RERF-LC-KJ,0.72
5,ABC-1,0.539
6,NCI-H358,0.226
7,NCI-H650,0.425
8,PC-3 [JPC-3],0.848

# Same assay, conditions: first compound 0.253 µM
row,Cell Line,relative viability
1,LC-2-ad,0.564
2,NCI-H1944,0.188
3,NCI-H1975,0.358
4,RERF-LC-KJ,0.772
5,ABC-1,0.524
6,NCI-H358,0.145
7,NCI-H650,0.408
8,PC-3 [JPC-3],0.968

# Same assay, conditions: first compound 0.8 µM
row,Cell Line,relative viability
1,LC-2-ad,0.558
2,NCI-H1944,0.246
3,NCI-H1975,0.425
4,RERF-LC-KJ,0.763
5,ABC-1,0.542
6,NCI-H358,0.192
7,NCI-H650,0.447
8,PC-3 [JPC-3],0.864

# Same assay, conditions: first compound 2.53 µM
row,Cell Line,relative viability
1,LC-2-ad,0.604
2,NCI-H1944,0.203
3,NCI-H1975,0.343
4,RERF-LC-KJ,0.743
5,ABC-1,0.58
6,NCI-H358,0.115
7,NCI-H650,0.547
8,PC-3 [JPC-3],0.937

# Same assay, conditions: first compound 8 µM
row,Cell Line,relative viability
1,LC-2-ad,0.665
2,NCI-H1944,0.224
3,NCI-H1975,0.495
4,RERF-LC-KJ,0.752
5,ABC-1,0.515
6,NCI-H358,0.167
7,NCI-H650,0.452
8,PC-3 [JPC-3],0.858

# Compound: C1CCC(CC1)N(CCNCCC2=C3C(=C(C=C2)O)NC(=O)CO3)C(=O)CCNCCC4=CC(=C(C=C4)Cl)Cl [AZ505] + O=C(CCCCCCC(=O)Nc1ccccc1)NO [Vorinostat] (partner 1 µM)
# Test: as above
# Details: first compound 0.08 µM
# Procedure, shortened: as §1
row,Cell Line,relative viability
1,LC-2-ad,0.657
2,NCI-H1944,0.563
3,NCI-H1975,0.632
4,RERF-LC-KJ,0.616
5,ABC-1,1.07
6,NCI-H358,0.665
7,NCI-H650,0.395
8,PC-3 [JPC-3],0.821

# Same assay, conditions: first compound 0.253 µM
row,Cell Line,relative viability
1,LC-2-ad,0.712
2,NCI-H1944,0.551
3,NCI-H1975,0.61
4,RERF-LC-KJ,0.689
5,NCI-H358,1.03
6,NCI-H650,0.425

# Same assay, conditions: first compound 0.8 µM
row,Cell Line,relative viability
1,LC-2-ad,0.689
2,NCI-H1944,0.641
3,NCI-H1975,0.625
4,RERF-LC-KJ,0.564
5,ABC-1,0.976
6,NCI-H358,0.834
7,NCI-H650,0.348
8,PC-3 [JPC-3],0.786

# Same assay, conditions: first compound 2.53 µM
row,Cell Line,relative viability
1,LC-2-ad,0.708
2,NCI-H1944,0.514
3,NCI-H1975,0.592
4,RERF-LC-KJ,0.672
5,ABC-1,1.14
6,NCI-H358,0.633
7,NCI-H650,0.567
8,PC-3 [JPC-3],0.934

# Same assay, conditions: first compound 8 µM
row,Cell Line,relative viability
1,LC-2-ad,0.772
2,NCI-H1944,0.55
3,NCI-H1975,0.666
4,RERF-LC-KJ,0.669
5,ABC-1,1.14
6,NCI-H358,0.69
7,NCI-H650,0.556
8,PC-3 [JPC-3],1.09

# Compound: Cn1c(=O)n(-c2ccc(C(C)(C)C#N)cc2)c2c3cc(-c4cnc5ccccc5c4)ccc3ncc21 [Dactolisib] + Cc1cc(Nc2cc(N3CCN(C)CC3)nc(Sc3ccc(NC(=O)C4CC4)cc3)n2)n[nH]1 [Tozasertib] (partner 0.1 µM)
# Test: as above
# Details: first compound 0.002 µM
# Procedure, shortened: as §1
row,Cell Line,relative viability
1,LC-2-ad,0.454
2,NCI-H1944,0.308
3,NCI-H1975,0.753
4,RERF-LC-KJ,0.535
5,ABC-1,0.188
6,NCI-H358,0.114
7,NCI-H650,0.713
8,PC-3 [JPC-3],0.967

# Same assay, conditions: first compound 0.006325 µM
row,Cell Line,relative viability
1,LC-2-ad,0.412
2,NCI-H1944,0.237
3,NCI-H1975,0.724
4,RERF-LC-KJ,0.551
5,ABC-1,0.176
6,NCI-H358,0.0941
7,NCI-H650,0.651
8,PC-3 [JPC-3],0.896

# Same assay, conditions: first compound 0.02 µM
row,Cell Line,relative viability
1,LC-2-ad,0.43
2,NCI-H1944,0.237
3,NCI-H1975,0.578
4,RERF-LC-KJ,0.599
5,ABC-1,0.165
6,NCI-H358,0.0945
7,NCI-H650,0.711
8,PC-3 [JPC-3],0.803

# Same assay, conditions: first compound 0.06325 µM
row,Cell Line,relative viability
1,LC-2-ad,0.363
2,NCI-H1944,0.156
3,NCI-H1975,0.267
4,RERF-LC-KJ,0.279
5,ABC-1,0.166
6,NCI-H358,0.0839
7,NCI-H650,0.608
8,PC-3 [JPC-3],0.831

# Same assay, conditions: first compound 0.2 µM
row,Cell Line,relative viability
1,LC-2-ad,0.333
2,NCI-H1944,0.153
3,NCI-H1975,0.138
4,RERF-LC-KJ,0.397
5,ABC-1,0.19
6,NCI-H358,0.0896
7,NCI-H650,0.408
8,PC-3 [JPC-3],0.608
